Laboratory results as given in patent publication US5514654A, “N-acyldipeptides, processes for the preparation thereof and pharmaceutical compositions containing the same” (priority 1990, dated 1996).
“And” between values parts separate entries of the source, which are not always exact repeats. Equal values may be shown once.

Key:
[1] = test system: splenic lymphocytes B and lymphocytes T; assay: Determination of the number of lymphocytes B and lymphocytes T; format: in vivo, female HAN-NmRI strain mice; details: 25, 2.5 and 0.25 μg by injection on 3 consecutive days after Brewer's thioglycolate medium i.p.; spleen isolated day 4
Description: (§1) Immunological studies were performed on female HAN-NmRI strain mice of 3-4 weeks, weighing from 18-21 g.
(§2) In tests 1.1 to 1.5, the animals were first administered the Brewer's thioglycolate medium by i.p. injection, which was followed after 6 hours by the injection of 0.5 ml of a solution containing 25 μg, 2.5 μg and 0.25 μg respectively of N-acetyl-muramyl-L-alanyl-D-isoglutamine (muramyl dipeptide, MDP) or of N-(7-oxooctanoyl)-L-alanyl-D-isoglutamine (compound 1, Example 19). Equal doses were administered to the animals on days 2 and 3. On day 4 the animals were sacrificed and the spleen and the peritoneal macrophages were isolated.
To the isolated splenic lymphocytes there were added fluorescein isothiocyanate labelled antimouse antibodies (for the determination of lymphocytes B) and anti-Thy 1 monoclonal antibodies (for the determination of lymphocytes T) respectively. After incubation and rinsing with RPMI 1640 medium (Gibco, Great Britain), the lymphocytes were counted by fluorescence microscopy.

[2] = test system: peritoneal macrophages; assay: Determination of the number of macrophages; format: in vivo, female HAN-NmRI strain mice; details: 25, 2.5 and 0.25 μg on 3 consecutive days; peritoneal cavity washings three days after thioglycolate stimulation
Description: as §1, §2
The number of macrophages in the peritoneal cavity washings was determined three days after the stimulation with Brewer's thioglycolate medium. The cells were suspended in ice-cold RPMI 1640 medium, to which trypan blue was added, and counted in Neubauer's chamber.

[3] = test system: splenic lymphocytes (lymphocytes T); assay: Blast transformation of lymphocytes by mithogens (concanavalin A, tritium labelled thymidine incorporation); format: in vivo, female HAN-NmRI strain mice; details: for Amount of active thymidine incoporated in lymphocyte DNA (cpm), x ± s.e.m: lymphocytes stimulated in vitro with concanavalin A
Description: as §1, §2
Isolated splenic lymphocytes were prepared in a concentration of 1×10^6 /ml in the RPMI 1640 medium, to which there were added 10% of foetal calf serum (FCS) (Sera-Lab, Great Britain), 1 ml of 200 mM L-glutamine solution and 1 ml of an antibiotic solution (100 U/ml of penicillin and 100 μg/ml of streptomycin) for 100 ml of complete medium. To each flat bottom well of a microtitration plate (T grade, Nunc, Denmark) 100 μl of the cell suspension were distributed. The cells were stimulated in vitro by adding concanavalin A (con A) (Pharmacia, Sweden) at respective concentrations of 16, 8, and 4 μg/ml. Control lymphocyte cultures were grown in basal medium only. The cells were then incubated at 37° C., 5% CO2 and 95% humidity for 2 days, followed by the addition of tritium labelled thymidine. After 16 hours the samples were prepared for the measurement in a β-counter. The results were expressed as incorporation indexes with respect to the control group of the animals.

[4] = test system: peritoneal macrophages; assay: Activation of peritoneal macrophages without additional in vitro stimulation with PMA (ferricytochrome C reduction); format: in vivo, female HAN-NmRI strain mice; details: for increase of macrophage activity: versus control
Description: as §1, §2
(§3) The peritoneal cavity of the animals was rinsed with 4 ml of ice-cold RPMI 1640 medium. The cytolysis of erythrocytes was effected with 0.2% NaCl. The remaining cells were washed twice in a cooled centrifuge at 4° C. and 1500 rpm for 5 minutes with ice-cold RPMI 1640 medium. The cells were re-suspended and the concentration was adjusted to 1.5×10^6/ml. The cell suspension was distributed among the flat bottom wells of a microtitration plate (T grade, Nunc, Denmark). After incubating for 2 hours at 37° C., 5% CO2 and 95% humidity, the wells were rinsed with warm RPMI 1640 medium and the adhering macrophages were used for testing.
(§4) After incubating for 90 minutes at 37° C., 5% CO2 and 95% humidity, the absorbance was measured at the wavelength of 570 nm.
(§5) The results are shown in Table 2 as the difference in the absorbance of the test sample and of the blank, calculated for 1 mg of cell protein.

[5] = test system: peritoneal macrophages; assay: Activation of peritoneal macrophages with additional in vitro stimulation with PMA (ferricytochrome C reduction); format: in vivo, female HAN-NmRI strain mice; details: for increase of macrophage activity: versus control
Description: as §1, §2, §3, §4, §5

[6] = test system: lymphocytes B; assay: Determination of haemolytic plaques for the assessment of the maturation of lymphocytes B; format: in vivo, female HAN-NmRI strain mice; details: 1 μg/mouse one day after sheep erythrocytes i.p.; control 86±12.7
Description: as §1
A 1% suspension of sheep erythrocytes (Institute of Microbiology, Faculty of Medicine, Ljubljana, Yugoslavia) in physiological saline was used for the immunisation. First, individual mice were administered 0.2 ml of this suspension by i.p. injection, followed next day by 0.1 ml (1 μg/mouse) of the test substance. The immunisation was completed on the fifth day after the administration of sheep erythrocytes and the mice were sacrificed.
Their spleens were removed and homogenized in Parker 199 Medium with added amminoacids, streptomycin and sodium carbonate (Torlak, Beograd, Yugoslavia). The lymphocytes were separated on the Ficol Separating Medium (Pharmacia, Uppsala, Sweden). After repeated rinsing with Parker 199 Medium, the cells were resuspended in RPMI 1640 nutrient medium with added 10% of fetal calf serum and streptomycin. To 50 μl of the cell suspension, 450 μl of trypan blue were added and the cells were counted in Neubauer's chamber. The number of lymphocytes per ml of the cell suspension was calculated. […] After the completion of the incubation, the plaques were counted under microscope.
The number of plaques per 1×10^6 cells was calculated according to the following equations: [formula]

[7] = test system: Fibrosarcoma SA-1; assay: Antitumour activity, tumour growth delay; format: in vivo, A/J strain mice; details: for Time needed for the tumour growth to the volume of 150 mm^3, Number of days (± SD) / Growth delay (± SD): 5 doses; for Time needed for the tumour growth to the volume of 150 mm^3, Number of days (± SD): control 5.5 ± 0.8; for Growth delay (± SD): versus control group
Description: The studies were performed on A/J strain mice (Institute Rudjer Boskovic, Zagreb, Yugoslavia) of 8 to 10 weeks. All animals used in the same experiment were of the same sex and age.
Fibrosarcoma SA-1 was used as the experimental tumour model. Tumorous cells were obtained from the ascitic form of the SA-1 tumour of the syngeneic A/J mouse. They were implanted into animals dorsilaterally by s.c. injection of 5×10^5 live tumour cells. The testing was started after the tumours had grown to a volume of 35 mm^3. The test substance was injected i.p. on five consecutive days in a dose of 2.5 or 25 μg. The growth of the tumours was monitored by measuring the diameters and the thickness of the tumours. The tumour volumes were calculated according to the formula 0.523×a×b×c (a, b and c being the tumour diameters).
The delay in the growth of each individual tumour was obtained by deducting the relevant time of growth of the tumour in the control group from the time needed for the growth of the tumour to reach the volume of 150 mm^3.

[8] = Pyrogenous activity according to the method of USP XXII; format: in vivo
Description: The pyrogenous activity was determined according to the method of USP XXII.

[9] = Toxicity, average lethal dose (LD50); format: in vivo
[10] = daily dose 0.25 μg for 3 consecutive days
[11] = daily dose 2.5 μg for 3 consecutive days
[12] = daily dose 25 μg for 3 consecutive days

For CC(=O)CCCCCC(=O)N[C@@H](C)C(=O)N[C@H](CCC(=O)O)C(N)=O [Compound 1, N-(7-oxooctanoyl)-L-alanyl-D-isoglutamine], the “number of splenic lymphocytes B” value [1] was “Neither the number of splenic lymphocites B nor of lymphocytes T was altered to a statistically significant extent”, the “number of splenic lymphocytes T” value [1] was “Neither the number of splenic lymphocites B nor of lymphocytes T was altered to a statistically significant extent” and the “number of peritoneal macrophages” value [2] was “not altered to a statistically significant extent”. For the same molecule, the “Amount of active thymidine incoporated in lymphocyte DNA (cpm), x ± s.e.m” value (shortened to “Amount of active thymidine incoporated”) [3, 10] was 16860 ± 5210 cpm, the “Amount of active thymidine incoporated” value [3, 11] was 19080 ± 5470 cpm and the “Amount of active thymidine incoporated” value [3, 12] was 16380 ± 2950 cpm. For the same molecule, the “immunomodulatory effect in lymphocytes T compared with MDP” value ([3]; dose of 25 μg) was “statistically greater”, the “increase of the blastic activity of lymphocytes T” value ([3]; dose of 25 μg, concanavalin A, versus control, p<0.05) was “about 70%” and the “dose dependence of macrophage activation” value ([4]; 0.25 to 25 μg) was “dose-dependent”. The “Difference in absorbancies of the test sample and of the blank per mg of cell protein, x ± s.e.m” value (from here on “Difference … per mg of cell protein, x ± s.e.m”) ([4]; daily dose 0.25 μg) was 273 ± 40, the “Difference … per mg of cell protein, x ± s.e.m” value ([4]; daily dose 2.5 μg) was 387 ± 56 and the “Difference … per mg of cell protein, x ± s.e.m” value ([4]; daily dose 25 μg) was 518 ± 20. For the same molecule, the “increase of macrophage activity” value ([4]; dose 0.25 μg) was “did not increase the activity”, the “increase of macrophage activity” value ([4]; dose 2.5 μg) was 40% and the “increase of macrophage activity” value ([4]; dose 25 μg) was 90%. For the same molecule, the “difference in macrophage activation between muramyl dipeptide and compound 1” value ([4]; doses of 2.5 and 25 μg, p>0.05) was “no statistically significant difference”, the “Difference … per mg of cell protein, x ± s.e.m” value [5, 10] was 1480 ± 336 and the “Difference … per mg of cell protein, x ± s.e.m” value [5, 11] was 1630 ± 297. The “Difference … per mg of cell protein, x ± s.e.m” value [5, 12] was 2200 ± 177, the “increase of macrophage activity” value ([5]; dose 0.25 μg (lowest dose)) was “about 50%” and the “increase of macrophage activity” value ([5]; dose 2.5 μg) was “about 60%”. For the same molecule, the “increase of macrophage activity” value ([5]; dose 25 μg) was “about 120%”, the “difference in macrophage activation between muramyl dipeptide and compound 1” value ([5]; doses of 2.5 and 25 μg, p>0.05) was “no statistically significant difference” and the “number of plaques (per 1×10^6 cells), x±s.e.m” value [6] was 170±39.9 and 245±75.5. For the same molecule, the “Time needed for the tumour growth to the volume of 150 mm^3, Number of days (± SD)” value ([7]; 2.5 μg daily i.p.) was 7.3 ± 1.5 days, the “Growth delay (± SD)” value ([7]; 2.5 μg daily i.p.) was 1.8 ± 0.5 and the “Time needed for the tumour growth to the volume of 150 mm^3, Number of days (± SD)” value ([7]; 25.0 μg daily i.p.) was 7.0 ± 1.7 days. For the same molecule, the “Growth delay (± SD)” value ([7]; 25.0 μg daily i.p.) was 1.5 ± 0.5, the “difference in antitumour activity between the higher and the lower dose” value ([7]; 25 μg versus 2.5 μg) was “no statistically significant difference” and the “antitumour activity in comparison to the control” value ([7]; dose of 2.5 μg and dose of 25 μg) was “moderate and statistically significant”. For the same molecule, the pyrogenous activity [8] was “did not show any pyrogenous activity”, the “factor by which the immunologically effective dose is lower than LD50” value ([9]; all described immunological effects) was “at least 2000 times” and the “average lethal dose (LD50)” value ([9]; i.v. application, male mice) was over 250 mg/kg.
